Data reported in publication PMC3559867, “Metabolites of Ginger Component [6]-Shogaol Remain Bioactive in Cancer Cells and Have Low Toxicity in Normal Cells: Chemical Synthesis and Biological Evaluation” (PLoS ONE, 2013).

Tests used:
[1] = test system: HCT-116 human colon cancer cells; test: MTT growth inhibition, HCT-116; assay type: cell-based; settings: 24 h treatment, 0 to 80 µM
Description: (§1) Cell growth inhibition was determined by a MTT colorimetric assay. Human colon cancer cells HCT-116, human lung cancer cells H-1299, human colon fibroblast cells CCD-18Co, and human lung fibroblast cells IMR-90 were plated in 96-well microtiter plates with 3000 cells/well and allowed to attach for 24 h at 37°C. […] After the cells were cultured for 24 h, the medium was aspirated and cells were treated with 200 µL fresh medium containing 2.41 mmol/L MTT. […] The reading reflected the number of viable cells and was expressed as a percentage of viable cells in the control. Both HCT-116 and H-1299 cells were cultured in McCoy’s 5A medium. CCD-18Co and IMR-90 cells were cultured in Eagle’s modified essential medium (EMEM). All of the above media were supplemented with 10% fetal bovine serum, 1% penicillin/streptomycin, and 1% glutamine, and the cells were kept in a 37°C incubator with 95% humidity and 5% CO2.

[2] = test system: CCD-18Co human normal fibroblast colon cells; test: MTT cytotoxicity, normal colon cells CCD-18Co; assay type: cell-based; settings: 24 h treatment, toxicity to normal cells
Description: as §1

[3] = test system: H-1299 human lung cancer cells; test: MTT growth inhibition, H-1299; assay type: cell-based; settings: 24 h treatment, 0 to 80 µM
Description: as §1

[4] = test system: IMR-90 human normal lung cells; test: MTT cytotoxicity, normal lung cells IMR-90; assay type: cell-based; settings: 24 h treatment, toxicity to normal cells
Description: as §1

HCT-116 cells = test: TUNEL apoptosis assay, HCT-116; assay type: cell-based, human; settings: 20 or 40 µM, versus DMSO
Description: (§2) HCT-116 and H1299 cells were seeded in 6-well plates at 1.10^5 cells/well and incubated at 37°C in 5% CO2 incubator. After 24 hours, fresh media supplemented with DMSO (control), [6]-shogaol, M2, M6, or M13 metabolites (20 µM or 40 µM) were added to the wells. After 6 or 24 hours incubation at 37°C in 5% CO2 incubator, cells were washed and pre-treated for 15 min at room temperature with a solution of 20 µg/ml proteinase K. Cells were then washed twice with phosphate buffer saline pH 7.4 (PBS) and fixed for 10 min at room temperature using 10% neutral formaldehyde solution. After 2 washes in ddH2O, cells were resuspended in 100 µL ddH2O and applied on silanized microscope slides. Slides were incubated overnight at 37°C, and washed twice with PBS. TUNEL assay was then carried out according to the manufacturer’s protocol. Cells were observed under 400X power using a Zeiss microscope A1 (Thornwood, NY). 10 fields per slide were evaluated, and TUNEL+ cells (with brown coloration in the nucleus) were expressed as a percentage of the total number of cells contained in a field.

H-1299 cells = test: TUNEL apoptosis assay, H-1299; assay type: cell-based, human; settings: H-1299, 24 hours of incubation, 20 or 40 µM, versus DMSO; M2 not significant at 20 µM
Description: as §2

[5] = HCT-116, 24 hours of incubation

Compound: CCCCCC(CC(=O)CCc1ccc(O)c(OC)c1)OC (stereo not drawn) [M7, 5-methoxy-1-(4'-hydroxy-3'-methoxyphenyl)-decan-3-one]
- IC50 [1]: > 100 µM
- IC50 [2]: > 100 µM
- IC50 ([3]; Homo sapiens, NCI-H1299, 24 h): > 100 µM
- IC50 [4]: > 100 µM

Compound: CCCCCC=CC(O)CCc1ccc(O)c(OC)c1 (stereo not drawn) [M6, 1-(4'-hydroxy-3'-methoxyphenyl)-4-decen-3-ol]
- IC50 [1]: 68.8 µM
- induction of apoptosis (TUNEL positive cells) (HCT-116 cells; [5]): did not display any apoptotic effect
- IC50 [2]: > 100 µM
- IC50 [3]: 68.8 µM
- IC50 ([3]; Homo sapiens, NCI-H1299, 24 h): 61.3 µM
- IC50 [4]: > 100 µM
- induction of apoptosis (TUNEL positive cells) (H-1299 cells): did not display any apoptotic effect

Compound: CCCCC/C=C/C(=O)CCc1ccc(O)c(OC)c1 [[6]-shogaol]
- IC50 [1]: 18.2 µM
- induction of apoptosis (TUNEL positive cells) (HCT-116 cells; HCT-116, 6 hours of incubation): significantly higher levels of apoptosis
- induction of apoptosis (TUNEL positive cells) (HCT-116 cells; [5]): significantly superior to that of both M2 and M13
- IC50 [2]: 43.9 µM
- IC50 ([3]; Homo sapiens, NCI-H1299, 24 h): 17.9 µM
- IC50 [4]: 36.6 µM
- induction of apoptosis (TUNEL positive cells) (H-1299 cells): significantly superior to that of both M2 and M13

Compound: CCCCCC(CC(O)CCc1ccc(O)c(OC)c1)SCC(NC(C)=O)C(=O)O (stereo not drawn) [M4, 5-N-acetylcysteinyl-M6]
- IC50 [1]: > 100 µM
- IC50 [2]: > 100 µM
- IC50 ([3]; Homo sapiens, NCI-H1299, 24 h): > 100 µM
- IC50 [4]: > 100 µM

Compound: CCCCCC(CC(O)CCc1ccc(O)c(OC)c1)SCC(N)C(=O)O (stereo not drawn) [M1, 5-cysteinyl-M6]
- IC50 [1]: > 100 µM
- IC50 [2]: > 100 µM
- IC50 ([3]; Homo sapiens, NCI-H1299, 24 h): > 100 µM
- IC50 [4]: > 100 µM

Compound: CCCCC[C@H](CC(=O)CCc1ccc(O)c(OC)c1)SC[C@H](NC(=O)CC[C@H](N)C(=O)O)C(=O)NCC(=O)O [M13-2]
- IC50 [1]: 54.9 µM
- induction of apoptosis (TUNEL positive cells) (HCT-116 cells; HCT-116, 6 hours of incubation): higher level of apoptosis
- IC50 ([3]; Homo sapiens, NCI-H1299, 24 h): 63.8 µM

Compound: CCCCCC(CC(=O)CCc1ccc(O)c(OC)c1)SCC(N)C(=O)O (stereo not drawn) [M2, 5-cysteinyl-[6]-shogaol]
- IC50 [1]: 24.4 µM
- induction of apoptosis (TUNEL positive cells) (HCT-116 cells; HCT-116, 6 hours of incubation): significantly higher levels of apoptosis
- induction of apoptosis (TUNEL positive cells) (HCT-116 cells; [5]): Significant apoptosis
- IC50 [2]: 99.2 µM
- IC50 [3]: 24.4 µM
- IC50 ([3]; Homo sapiens, NCI-H1299, 24 h): 25.8 µM
- IC50 [4]: 98.3 µM
- induction of apoptosis (TUNEL positive cells) (H-1299 cells): Significant apoptosis

Compound: CCCCCCCC(=O)CCc1ccc(O)c(O)c1 [M8, 1-(3',4'-dihydroxyphenyl)-decan-3-one]
- IC50 [1]: 58.8 µM
- IC50 [2]: > 100 µM
- IC50 ([3]; Homo sapiens, NCI-H1299, 24 h): > 100 µM
- IC50 [4]: > 100 µM

Compound: CCCCCC(CC(=O)CCc1ccc(O)c(OC)c1)SC[C@H](NC(C)=O)C(=O)O (stereo partly drawn) [M5, 5-N-acetylcysteinyl-[6]-shogaol]
- IC50 [1]: 54.3 µM
- IC50 [2]: > 100 µM
- IC50 [3]: 54.3 µM
- IC50 ([3]; Homo sapiens, NCI-H1299, 24 h): 72.6 µM
- IC50 [4]: > 100 µM

Compound: CCCCCC(CC(=O)CCc1ccc(O)c(OC)c1)SCC(NC(=O)CCC(N)C(=O)O)C(=O)NCC(=O)O (stereo not drawn) [M13, 5-glutathiol-[6]-shogaol]
- IC50 [1]: 45.5 µM
- induction of apoptosis (TUNEL positive cells) (HCT-116 cells; HCT-116, 6 hours of incubation): significantly higher levels of apoptosis
- induction of apoptosis (TUNEL positive cells) (HCT-116 cells; [5]): Significant apoptosis
- IC50 [2]: 75.5 µM
- IC50 ([3]; Homo sapiens, NCI-H1299, 24 h): 47.8 µM
- IC50 [4]: 57.5 µM
- induction of apoptosis (TUNEL positive cells) (H-1299 cells): Significant apoptosis

Compound: CCCCCC(CC(O)CCc1ccc(O)c(OC)c1)SC (stereo not drawn) [M12, 5-methylthio-1-(4'-Hydroxy-3'-methoxyphenyl)-decan-3-ol]
- IC50 [1]: > 100 µM
- IC50 [2]: > 100 µM
- IC50 ([3]; Homo sapiens, NCI-H1299, 24 h): 69.9 µM
- IC50 [4]: > 100 µM

Compound: CCCCC[C@@H](CC(=O)CCc1ccc(O)c(OC)c1)SC[C@H](NC(=O)CC[C@H](N)C(=O)O)C(=O)NCC(=O)O [M13-1]
- IC50 [1]: 71.2 µM
- induction of apoptosis (TUNEL positive cells) (HCT-116 cells; HCT-116, 6 hours of incubation): higher level of apoptosis
- IC50 ([3]; Homo sapiens, NCI-H1299, 24 h): 74.4 µM

Compound: CCCCCCCC(O)CCc1ccc(O)c(OC)c1 (stereo not drawn) [M9, 1-(4'-hydroxy-3'-methoxyphenyl)-decan-3-ol]
- IC50 [1]: 82.2 µM
- IC50 [2]: > 100 µM
- IC50 ([3]; Homo sapiens, NCI-H1299, 24 h): 82.5 µM
- IC50 [4]: > 100 µM

Compound: CCCCCCCC(=O)CCc1ccc(O)c(OC)c1 [M11, 1-(4'-hydroxy-3'-methoxyphenyl)-decan-3-one]
- IC50 [1]: 84 µM
- IC50 [2]: > 100 µM
- IC50 ([3]; Homo sapiens, NCI-H1299, 24 h): 66.5 µM
- IC50 [4]: > 100 µM

Compound: CCCCCC(CC(=O)CCc1ccc(O)c(OC)c1)SC (stereo not drawn) [M10, 5-methylthio-1-(4'-hydroxy-3'-methoxyphenyl)-decan-3-one]
- IC50 [1]: 78.2 µM
- IC50 [2]: > 100 µM
- IC50 ([3]; Homo sapiens, NCI-H1299, 24 h): 60.6 µM
- IC50 [4]: > 100 µM
